Measured values published in patent publication US10869931B2, “Polyethylene glycol-modified angiogenesis inhibitor HM-1 and application thereof” (NANJING ANJI BIOLOGICAL TECHNOLOGY CO.,LTD, priority 2016, dated 2020).
Where no end group is shown, it is not given here.

What was measured:
[1] = test system: Head and neck cancer tumor cells; assay: MTT proliferation inhibition, head and neck cancer cells; assay type: cell-based, human; parameters: concentration or dose not given beside the values; details: 48 h
Outline: (§1)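 Tumour cells plated at 2×10^4 cells/mL, attached overnight, then exposed to dilutions of mPEG-HM-1 for 48 h at 37 °C, 5% CO2. MTT added 4 h, formazan dissolved in DMSO, absorbance 570/630 nm; growth inhibition = 1 − treated/untreated, three independent repeats, mean±SD.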

[2] = test system: Esophageal cancer tumor cells; assay: MTT proliferation inhibition, esophageal cancer cells; assay type: cell-based, human; parameters: concentration or dose not given beside the values; details: 48 h
Outline: as §1

[3] = test system: Gastric cancer tumor cells; assay: MTT proliferation inhibition, gastric cancer cells; assay type: cell-based, human; parameters: concentration or dose not given beside the values; details: 48 h
Outline: as §1

[4] = test system: Colorectal cancer tumor cells; assay: MTT proliferation inhibition, colorectal cancer cells; assay type: cell-based, human; parameters: concentration or dose not given beside the values; details: 48 h
Outline: as §1

[5] = test system: Ovarian cancer tumor cells; assay: MTT proliferation inhibition, ovarian cancer cells; assay type: cell-based, human; parameters: concentration or dose not given beside the values; details: 48 h
Outline: as §1

[6] = test system: Uterine cancer tumor cells; assay: MTT proliferation inhibition, uterine cancer cells; assay type: cell-based, human; parameters: concentration or dose not given beside the values; details: 48 h
Outline: as §1

[7] = test system: Prostate cancer tumor cells; assay: MTT proliferation inhibition, prostate cancer cells; assay type: cell-based, human; parameters: concentration or dose not given beside the values; details: 48 h
Outline: as §1

Melanoma tumor cells = assay: MTT proliferation inhibition, melanoma cells; assay type: cell-based, human; parameters: concentration or dose not given beside the values; details: 48 h
Outline: as §1

mouse spleen lymphocytes = assay: ConA-stimulated mouse spleen lymphocyte proliferation (MTT); assay type: cell-based; details: ConA 5 μg/mL, 48 h
Outline: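 Proliferation read by MTT (4 h), DMSO solubilisation and OD 570 nm, 5 replicates, after 48 h culture at 37° C. Cells were erythrocyte-depleted splenocytes at 5×10^6/mL in RPMI 1640 plus 10% calf serum; groups were blank, ConA and dexamethasone 0.02 mg/mL.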

[8] = test system: carrageenan-induced toe swelling in SD rats; assay: Carrageenan-induced acute toe swelling in rats; assay type: in vivo, rat; parameters: Swelling: unit not given here
Outline: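 SD rats dosed with mPEG-HM-1 once daily for 3 days […]; 1 h after last dose, 0.1 mL 1% carrageenan injected subcutaneously into right hind paw. Paw volume measured by liquid displacement at 1, 3, 5 and 7 h; swelling = post- minus pre-inflammation volume (mL).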

Substance: mPEG-ALD5k-Arg-Gly-Ala-Asp-Arg-Ala-Gly-Gly-Gly-Gly-Arg-Gly-Asp ({mPEG‑ALD 5 kDa}-RGADRAGGGGRGD) [mPEG-ALD5k-HM-1]
- rate of growth inhibition [1]: 40.71 ± 11.33%
- rate of growth inhibition [2]: 44.63 ± 10.86%
- rate of growth inhibition [3]: 58.77 ± 15.49%
- rate of growth inhibition [4]: 57.30 ± 15.82%
- rate of growth inhibition [5]: 65.81 ± 20.42%
- rate of growth inhibition [6]: 65.99 ± 17.72%
- rate of growth inhibition [7]: 38.47 ± 11.52%
- rate of growth inhibition (Melanoma tumor cells): 63.61 ± 21.30%
- A570 nm/A630 nm (mouse spleen lymphocytes; 5 μg/mL): 0.6241 ± 0.0917
- Inhibition Rate of spleen lymphocyte proliferation (mouse spleen lymphocytes; 5 μg/mL): 9.14%
- A570 nm/A630 nm (mouse spleen lymphocytes; 10 μg/mL): 0.5448 ± 0.1072
- Inhibition Rate of spleen lymphocyte proliferation (mouse spleen lymphocytes; 10 μg/mL): 20.68%
- A570 nm/A630 nm (mouse spleen lymphocytes; 20 μg/mL): 0.4779 ± 0.1178
- Inhibition Rate of spleen lymphocyte proliferation (mouse spleen lymphocytes; 20 μg/mL): 30.42%
- Swelling ([8]; 10 mg/kg once a day for 3 days, 1 h after carrageenan): 0.22 ± 0.10
- Swelling ([8]; 10 mg/kg once a day for 3 days, 3 h after carrageenan): 0.35 ± 0.13
- Swelling ([8]; 10 mg/kg once a day for 3 days, 5 h after carrageenan): 0.41 ± 0.15
- Swelling ([8]; 10 mg/kg once a day for 3 days, 7 h after carrageenan): 0.31 ± 0.12
- Swelling ([8]; 20 mg/kg once a day for 3 days, 1 h after carrageenan): 0.21 ± 0.11
- Swelling ([8]; 20 mg/kg once a day for 3 days, 3 h after carrageenan): 0.34 ± 0.19
- Swelling ([8]; 20 mg/kg once a day for 3 days, 5 h after carrageenan): 0.37 ± 0.11
- Swelling ([8]; 20 mg/kg once a day for 3 days, 7 h after carrageenan): 0.35 ± 0.13

Substance: mPEG2-NHS20k-Arg-Gly-Ala-Asp-Arg-Ala-Gly-Gly-Gly-Gly-Arg-Gly-Asp ({mPEG2‑NHS 20 kDa}-RGADRAGGGGRGD) [mPEG2-NHS20k-HM-1]
- rate of growth inhibition [1]: 46.18 ± 11.22%
- rate of growth inhibition [2]: 50.79 ± 14.37%
- rate of growth inhibition [3]: 60.90 ± 20.14%
- rate of growth inhibition [4]: 58.16 ± 20.36%
- rate of growth inhibition [5]: 63.55 ± 19.60%
- rate of growth inhibition [6]: 65.99 ± 22.07%
- rate of growth inhibition [7]: 47.75 ± 10.14%
- rate of growth inhibition (Melanoma tumor cells): 69.11 ± 21.79%
- A570 nm/A630 nm (mouse spleen lymphocytes; 20 μg/mL): 0.6082 ± 0.0990
- Inhibition Rate of spleen lymphocyte proliferation (mouse spleen lymphocytes; 20 μg/mL): 12.16%
- A570 nm/A630 nm (mouse spleen lymphocytes; 40 μg/mL): 0.4879 ± 0.1156
- Inhibition Rate of spleen lymphocyte proliferation (mouse spleen lymphocytes; 40 μg/mL): 29.53%
- A570 nm/A630 nm (mouse spleen lymphocytes; 80 μg/mL): 0.4375 ± 0.1095
- Inhibition Rate of spleen lymphocyte proliferation (mouse spleen lymphocytes; 80 μg/mL): 36.82%
- Swelling ([8]; 40 mg/kg once a day for 3 days, 1 h after carrageenan): 0.26 ± 0.15
- Swelling ([8]; 40 mg/kg once a day for 3 days, 3 h after carrageenan): 0.34 ± 0.14
- Swelling ([8]; 40 mg/kg once a day for 3 days, 5 h after carrageenan): 0.43 ± 0.17
- Swelling ([8]; 40 mg/kg once a day for 3 days, 7 h after carrageenan): 0.36 ± 0.12
- Swelling ([8]; 80 mg/kg once a day for 3 days, 1 h after carrageenan): 0.25 ± 0.11
- Swelling ([8]; 80 mg/kg once a day for 3 days, 3 h after carrageenan): 0.32 ± 0.13
- Swelling ([8]; 80 mg/kg once a day for 3 days, 5 h after carrageenan): 0.41 ± 0.11
- Swelling ([8]; 80 mg/kg once a day for 3 days, 7 h after carrageenan): 0.34 ± 0.14
